Measured values taken from US20250325684A1, “POTENT ANTI-CANCER CYCLOTIDES” (University of Southern California, priority 2022, published 2025).
Bridge positions count the residues as written; N and C are the ends. Peptide text beside a SMILES is read from it.

Columns and labels:
BxPC-3 = experiment: MTT cell viability, BxPC-3 cells; format: cell-based, human; conditions: BxPC-3 pancreatic ductal adenocarcinoma, p53 Mutant
Procedure: (§1) Cell viability assay in several human cancer cell lines (See Tables 1 to 10). Cell lines were cultured in RPMI 1640 (or recommended medium when indicated) medium supplemented with 10% fetal calf serum, penicillin (50 IU/mL) and streptomycin ([…]) at 37° C. in 5% CO2. Cell viability studies was carried using the MTT (3-(4,5-dimethylthiazol-2-yl)-2,5-diphenyltetrazolium bromide) assay as previously described (31). Briefly, ≈2×10^3 CRC cells were be seeded in 96-well microtiter plates in 100 μL RPMI 1640 in the presence of 10% calf serum. […] After 1 h, 210 μL/well of full complemented media was added, the cells were grown for 48 h and then treated with 20 μL of a solution of MTT (5 mg/mL) for 2 h. The medium was discarded and DMSO ([…]) was added to each well and incubated with gentle shaking for 20 min at room temperature. The absorbance at 595 nm of the solution is analyzed using a Tecan Genios Multifunctional Microplate Reader (Tecan System Inc) and the background at 670 nm subtracted. RNA-Seq analysis was performed using state-of-the-art bioinformatics tools. Briefly, raw RNA-Seq reads were mapped to human genome (hg38) using STAR aligner (v2.7.3a). Gencode Release 36 reference was used for annotation. Transcript and gene expression levels were quantified using the IsoEM (37) with default parameters. Counts per million (CPM) method is used for normalization. Differential expression was done using DESeq2 with default parameters. Genes involved in different biological pathways (human) were searched from Geneontology (http://geneontology.org/). Bioinformatics results can be validated by using Partek Flow (v10.0.21.0912), a bioinformatics pipeline developed by Zymo Research (https://www.zymoresearch.com/).
(§2) Cell viability was evaluated using the MTT assay as described above.

Capan-1 = experiment: MTT cell viability, Capan-1 cells; format: cell-based, human; conditions: Capan-1 pancreatic ductal adenocarcinoma, p53 Mutant
Procedure: as §1, §2

SW1990 = experiment: MTT cell viability, SW1990 cells; format: cell-based, human; conditions: SW1990 pancreatic adenocarcinoma, p53 Mutant (Deletion)
Procedure: as §1, §2

PANC-1 = experiment: MTT cell viability, PANC-1 cells; format: cell-based, human; conditions: PANC-1 pancreatic ductal adenocarcinoma, p53 Mutant
Procedure: as §1, §2

SW626 = experiment: MTT cell viability, SW626 cells; format: cell-based, human; conditions: SW626 ovarian cells, p53 Mutant; MTT (Table 7); read-out: Cell Viability Assay
Procedure: as §1, §2

ES-2 = experiment: MTT cell viability, ES-2 ovarian cells; format: cell-based, human; conditions: p53 Mutant
Procedure: (§3) Cell viability assay in several human cancer cell lines (See Tables 1 to 10). Cell lines were cultured in RPMI 1640 (or recommended medium when indicated) medium supplemented with 10% fetal calf serum, penicillin (50 IU/mL) and streptomycin ([…]) at 37° C. in 5% CO2. Cell viability studies was carried using the MTT (3-(4,5-dimethylthiazol-2-yl)-2,5-diphenyltetrazolium bromide) assay as previously described (31). Briefly, ≈2×10^3 CRC cells were be seeded in 96-well microtiter plates in 100 μL RPMI 1640 in the presence of 10% calf serum. After 24 h incubation the cells were washed with PBS and treated with 30 μL/well of PBS or RPMI 1640 (or recommended) media containing cyclotides MCo-52, MCoTI-I (used as negative control), nutlin-3a (used as positive control) or MI-77301 (used as positive control for p53-mutated or p53-null cells) at the indicated doses for 1 h at 37° C. in 5% CO2. After 1 h, 210 μL/well of full complemented media was added, the cells were grown for 48 h and then treated with 20 μL of a solution of MTT (5 mg/mL) for 2 h. The medium was discarded and DMSO ([…]) was added to each well and incubated with gentle shaking for 20 min at room temperature. The absorbance at 595 nm of the solution is analyzed using a Tecan Genios Multifunctional Microplate Reader (Tecan System Inc) and the background at 670 nm subtracted. RNA-Seq analysis was performed using state-of-the-art bioinformatics tools. Briefly, raw RNA-Seq reads were mapped to human genome (hg38) using STAR aligner (v2.7.3a). Gencode Release 36 reference was used for annotation. Transcript and gene expression levels were quantified using the IsoEM (37) with default parameters. Counts per million (CPM) method is used for normalization. Differential expression was done using DESeq2 with default parameters. Genes involved in different biological pathways (human) were searched from Geneontology (http://geneontology.org/). Bioinformatics results can be validated by using Partek Flow (v10.0.21.0912), a bioinformatics pipeline developed by Zymo Research (https://www.zymoresearch.com/).
(§4) Tables 1 through 10 show in vitro activity of cyclotide MCo-52-2-cTAT against different human cancer cell lines, some with null-, mutated, or wildtype p53 phenotypes. Cell viability was evaluated using the MTT assay as described above.

PC-3 = experiment: MTT cell viability, PC-3 cells; format: cell-based; conditions: PC-3 prostate carcinoma, p53 Mutant, read-out: Cell viability, Human Prostate Cancer Cells
Procedure: as §3, §4

A2780 = experiment: MTT cell viability, A2780 ovarian cells; format: cell-based, human; conditions: p53 WT
Procedure: as §3, §4

HPAF-II = experiment: MTT cell viability, HPAF-II cells; format: cell-based, human; conditions: HPAF-II pancreatic ductal adenocarcinoma, p53 Mutant
Procedure: as §1, §2

SKOV 3 = experiment: MTT cell viability, SKOV 3 ovarian cells; format: cell-based, human; conditions: p53 Mutant
Procedure: as §3, §4

NIHOVCAR3 = experiment: MTT cell viability, NIHOVCAR3 ovarian cells; format: cell-based, human; conditions: p53 Mutant
Procedure: as §3, §4

AsPC-1 = experiment: MTT cell viability, AsPC-1 cells; format: cell-based, human; conditions: AsPC-1 pancreatic ductal adenocarcinoma, p53 Mutant
Procedure: as §1, §2

DU145 = experiment: MTT cell viability, DU145 cells; format: cell-based; conditions: DU145 prostate carcinoma, p53 Mutant, read-out: Cell viability, Human Prostate Cancer Cells
Procedure: as §3, §4

LNCaP = experiment: MTT cell viability, LNCaP cells; format: cell-based; conditions: LNCaP prostate carcinoma, p53 WT, read-out: Cell viability, Human Prostate Cancer Cells
Procedure: as §3, §4

CFPAC-1 = experiment: MTT cell viability, CFPAC-1 cells; format: cell-based, human; conditions: CFPAC-1 pancreatic ductal adenocarcinoma, p53 Mutant
Procedure: as §1, §2

MIA PaCa-2 = experiment: MTT cell viability, MIA PaCa-2 cells; format: cell-based, human; conditions: MIA PaCa-2 pancreatic ductal adenocarcinoma, p53 Mutant
Procedure: as §1, §2

MSCLC 494 = experiment: MTT cell viability, MSCLC 494 cells; format: cell-based; conditions: Mus musculus, MSCLC 494 murine small cell lung cancer
Procedure: as §1, §2

SW480 = experiment: MTT cell viability, SW480 cells; format: cell-based, human; conditions: Homo sapiens, SW480 colon adenocarcinoma, p53 Mutant
Procedure: as §1, §2

NCl-H522 = experiment: MTT cell viability, NCl-H522 cells; format: cell-based, human; conditions: Homo sapiens, NCl-H522 lung adenocarcinoma, p53 Mutant (Deletion)
Procedure: as §1, §2

Jurkat = experiment: MTT cell viability, Jurkat cells; format: cell-based, human; conditions: Homo sapiens, Jurkat childhood T acute lymphoblastic leukemia, p53 Mutant
Procedure: as §1, §2

NCl-H69 = experiment: MTT cell viability, NCl-H69 cells; format: cell-based, human; conditions: Homo sapiens, NCl-H69 lung small cell carcinoma, p53 Mutant
Procedure: as §1, §2

MV4-11 = experiment: MTT cell viability, MV4-11 cells; format: cell-based, human; conditions: Homo sapiens, MV4-11 childhood acute monocytic leukemia, p53 WT
Procedure: as §1, §2

MOLM-13 = experiment: MTT cell viability, MOLM-13 cells; format: cell-based, human; conditions: Homo sapiens, MOLM-13 adult acute myeloid leukemia, p53 WT
Procedure: as §1, §2

HCT116^+/+ = experiment: MTT cell viability, HCT116 p53 wild-type cells; format: cell-based, human; conditions: Homo sapiens, HCT-116
Procedure: as §1, §2

NCl-H526 = experiment: MTT cell viability, NCl-H526 cells; format: cell-based, human; conditions: Homo sapiens, NCl-H526 lung small cell carcinoma, p53 Null
Procedure: as §1, §2

Caco-2 = experiment: MTT cell viability, Caco-2 cells; format: cell-based, human; conditions: Homo sapiens, Caco-2 colon adenocarcinoma, p53 Mutant
Procedure: as §1, §2

HCT116^−/− = experiment: MTT cell viability, HCT116 p53-null cells; format: cell-based, human; conditions: Homo sapiens, HCT-116
Procedure: as §1, with “Counts per million (CPM) method is used for normalization. Differential expression was done using DESeq2 with default parameters. Genes involved in different biological pathways (human) were searched from Geneontology (http://geneontology.org/). Bioinformatics results can be validated by using Partek Flow (v10.0.21.0912), a bioinformatics pipeline developed by Zymo Research (https://www.zymoresearch.com/).” left out
as §2

U937 = experiment: MTT cell viability, U937 cells; format: cell-based, human; conditions: Homo sapiens, U-937, U937 adult acute monocytic leukemia, p53 Mutant
Procedure: as §1, §2

NCl-H1299 = experiment: MTT cell viability, NCl-H1299 cells; format: cell-based, human; conditions: Homo sapiens, NCl-H1299 lung large cell carcinoma, p53 Null
Procedure: as §1, §2

NCl-H23 = experiment: MTT cell viability, NCl-H23 cells; format: cell-based, human; conditions: Homo sapiens, NCl-H23 lung adenocarcinoma, p53 Mutant
Procedure: as §1, §2

NCl-A549 = experiment: MTT cell viability, NCl-A549 cells; format: cell-based, human; conditions: Homo sapiens, NCl-A549 lung adenocarcinoma, p53 WT
Procedure: as §1, §2

Question: With `CC[C@H](C)[C@@H]1NC(=O)[C@@H]2CSSC[C@@H]3NC(=O)[C@H](C(C)C)NC(=O)CNC(=O)CNC(=O)[C@H](CC(=O)O)NC(=O)[C@H](CO)NC(=O)CNC(=O)[C@H](CO)NC(=O)CNC(=O)[C@@H]4CSSC[C@H](NC(=O)[C@H](CC(=O)O)NC(=O)[C@H](CO)NC(=O)[C@H](CC(=O)O)NC(=O)[C@H](CCCNC(=N)N)NC(=O)[C@H](CCCNC(=N)N)NC(=O)[C@H](CSSC[C@H](NC1=O)C(=O)N[C@@H](CCCNC(=N)N)C(=O)N[C@@H](Cc1c[nH]cn1)C(=O)N[C@@H](CC(=O)O)C(=O)N[C@@H](CO)C(=O)N[C@@H](Cc1ccc(O)cc1)C(=O)N4)NC(=O)[C@H](CC(C)C)NC(=O)[C@H](CC(C)C)NC(=O)[C@H](Cc1ccc(O)cc1)NC(=O)[C@H](CC(C)C)NC(=O)[C@H](CC(N)=O)NC(=O)[C@@H]1CCCN1C3=O)C(=O)N1CCC[C@H]1C(=O)NCC(=O)N[C@@H](C)C(=O)N2` [Cyclotide 52-2] (cyclo(ACICRHDSYCGSGSDGGVCPNLYLLCRRDSDCPG); disulfide 2-19, 4-26, 10-32) as the compound, how does the EC50 (BxPC-3) read?
Answer: > 100 µM

Question: And the EC50 (Capan-1)?
Answer: > 100 µM

Question: What about the EC50 (SW1990) of the same compound?
Answer: > 100 µM

Question: And the EC50 (PANC-1)?
Answer: > 100 µM

Question: And the EC50 (SW626)?
Answer: > 100 µM

Question: What about the EC50 (ES-2) of the same compound?
Answer: > 100 µM

Question: What about the EC50 (PC-3) of the same compound?
Answer: > 100 µM

Question: And the EC50 (A2780)?
Answer: > 100 µM

Question: And the EC50 (HPAF-II)?
Answer: > 100 µM

Question: And the EC50 (SKOV 3)?
Answer: > 100 µM

Question: What about the EC50 (NIHOVCAR3) of the same compound?
Answer: > 100 µM

Question: And the EC50 (AsPC-1)?
Answer: > 100 µM

Question: What about the EC50 (DU145) of the same compound?
Answer: > 100 µM

Question: And the EC50 (LNCaP)?
Answer: > 100 µM

Question: And the EC50 (CFPAC-1)?
Answer: > 100 µM

Question: What about the EC50 (MIA PaCa-2) of the same compound?
Answer: > 100 µM

Question: How did the EC50 (MSCLC 494) turn out when `CC(C)(C)C[C@@H]1N[C@@H](C(=O)N[C@H]2CC[C@H](O)CC2)[C@H](c2cccc(Cl)c2F)[C@]12C(=O)Nc1cc(Cl)ccc12` [MI-77301] was run?
Answer: 15.8 ± 2.2 µM

Question: What about the EC50 (SW480) of the same compound?
Answer: 26.1 ± 3.3 µM

Question: What about the EC50 (NCl-H522) of the same compound?
Answer: 22.7 ± 2.8 µM

Question: And the EC50 (BxPC-3; Homo sapiens)?
Answer: 17.3 ± 2.3 µM

Question: And the EC50 (PANC-1; Homo sapiens)?
Answer: 12.7 ± 1.6 µM

Question: And the EC50 (Jurkat)?
Answer: 12.1 ± 1.6 µM

Question: What about the EC50 (HPAF-II; Homo sapiens) of the same compound?
Answer: 6.7 ± 1 µM

Question: And the EC50 (NCl-H69)?
Answer: 31.7 ± 5.2 µM

Question: And the EC50 (MV4-11)?
Answer: 0.3 ± 0.03 µM

Question: And the EC50 (MOLM-13)?
Answer: 0.7 ± 0.1 µM

Question: What about the EC50 (HCT116^+/+) of the same compound?
Answer: 2.7 ± 0.2 µM

Question: And the EC50 (NCl-H526)?
Answer: 9.7 ± 1.8 µM

Question: And the EC50 (Caco-2)?
Answer: > 50 µM

Question: What about the EC50 (HCT116^−/−) of the same compound?
Answer: 23.7 ± 1.9 µM

Question: And the EC50 (CFPAC-1; Homo sapiens)?
Answer: 22.1 ± 1.6 µM

Question: What about the EC50 (U937) of the same compound?
Answer: 9.6 ± 2.2 µM

Question: What about the EC50 (MIA PaCa-2; Homo sapiens) of the same compound?
Answer: 10.5 ± 1.6 µM

Question: And the EC50 (NCl-H1299)?
Answer: 21.5 ± 2.5 µM

Question: What about the EC50 (NCl-H23) of the same compound?
Answer: 10.7 ± 1.9 µM

Question: What about the EC50 (NCl-A549) of the same compound?
Answer: 15.8 ± 2.2 µM
